Measurements taken from patent US20240277693A1, “A PHARMACEUTICAL PRODUCT CONTAINING TASQUINIMOD AND A METHOD FOR ASSESSING THE PURITY OF SAID PRODUCT” (ACTIVE BIOTECH AB, priority 2021, published 2024).

Experiments:
[1] = Assessment of capsules after manufacture: amount of tasquinimod and of decomposition products; format: physicochemical; details: for amount of tasquinimod in capsules / amount of compound III in capsules, relative to the amount of tasquinimod: after manufacture; for Tasquinimod (mg/capsule) / Decomposition products (% w/w), relative to the amount of tasquinimod in capsule: 0 months (after manufacturing)
Text: In some embodiments, the method disclosed herein comprises storing (keeping) a sample of the pharmaceutical product for a period of time, preferably under selected conditions of temperature and humidity. The amount (or concentration) of tasquinimod and of at least one of compounds I, II, III and IV in the sample may preferably be determined at the beginning or before the storage period and at the end of the storage period. The selected storage conditions may include a temperature in the range of, for example, 20° C. to 40° C., and a relative humidity in the surrounding atmosphere in the range of, for example, 30% to 75%; e.g. 25° C. and 60% RH, or 30° C. and 65% RH, or 35° C. and 70% RH, or 40° C. and 75% RH. The storage period may extend over a time period in the range of, for example, several weeks to several years. For example, the stability testing period (“storage period”) may be 2 weeks, 3 weeks, 1 month, 2 months, 3 months, 4 months, 5 months, 6 months, 9 months, 1 year, 18 months, 2 years, 3 years, 4 years or even 5 years or longer. A shorter storage period may be selected by use of higher storage temperature and/or higher relative humidity (RH). The total amount of a tasquinimod decomposition product in the sample at the end of the storage period may be determined by, for example, HPLC.
The obtained batch of capsules was assessed by determining the amount of tasquinimod and the amount of compound III in a sample of the capsules. The selected criterion for approving the batch was that the capsules of the sample contain not more than 1.0% w/w of compound III relative to the amount of tasquinimod. […] Therefore, according to the selected criterion for approval, the batch of capsules was determined to be suitable for distribution.
The obtained batch of capsules was assessed by determining the amount of tasquinimod and the amount of compounds I, II, III and IV in a sample of the capsules. The selected criterion for approving the batch was that the capsules of the sample contain not more than in total 5% w/w of compounds I-IV relative to the amount of tasquinimod. […] Therefore, according to the selected criterion for approval, the batch of capsules was determined to be suitable for distribution.
The obtained batch of capsules was subjected to multiple assessments, viz. a first assessment comprising determining the amount of tasquinimod and the amount of compounds I, II, III and IV in a sample of the capsules directly after manufacturing, whereby the selected criterion for approving the batch for distribution was that the capsules of the sample, in a water impermeable blister pack, contain not more than in total 5% w/w of compounds I-IV relative to the amount of tasquinimod, followed by eight further, independent assessments, by determining the amount of tasquinimod and the amount of each one of compounds I, II, III and IV in a sample of the capsules at the end of a period of stability testing (by keeping the capsules, in a water impermeable blister pack, at 25° C./60% RH) of 3, 6, 9, 12, 18, 24, 36 and 48 months, respectively, whereby each time the criterion for approving the batch was that the capsules of the sample, at the end of each period of stability testing, contain a total amount of compounds I-IV of not more than 5.0% w/w, relative to the amount of tasquinimod in the capsules.

[2] = Drug product stability studies (general observations); format: physicochemical
Text: In a drug product, compound I is formed with compound II from hydrolysis of tasquinimod. […] Compound II is further decarboxylated to form compound III.
Compound III is the decarboxylated species formed from the degradation of compound II.
The mechanism for formation of compound IV in a drug product is unknown.

COc1cccc2c1c(O)c(C(=O)N(C)c1ccc(C(F)(F)F)cc1)c(=O)n2C [Tasquinimod, 4-hydroxy-5-methoxy-N, 1-dimethyl-2-oxo-N-[4-(trifluoromethyl)phenyl]-1,2-dihydroquinoline-3-carboxamide]
amount of tasquinimod in capsules ([1]; 0.25 mg capsules of Example 10): 0.252 mg/capsule
amount of tasquinimod in capsules ([1]; 0.25 mg capsules of Example 13): 0.256 mg/capsule
amount of tasquinimod in capsules ([1]; 0.25 mg capsules of Example 19): 0.244 mg/capsule
amount of tasquinimod in capsules ([1]; 0.5 mg capsules of Example 7): 0.498 mg/capsule
Tasquinimod (mg/capsule) ([1]; 0.5 mg capsules of Example 28): 0.500 mg/capsule
amount of tasquinimod in capsules ([1]; 1 mg capsules of Example 2): 1.05 mg/capsule
amount of tasquinimod in capsules ([1]; 1 mg capsules of Example 16): 0.994 mg/capsule
Tasquinimod (mg/capsule) ([1]; 1.0 mg capsules of Example 29): 0.992 mg/capsule

COc1cccc2c1c(O)cc(=O)n2C [Compound III, 4-hydroxy-5-methoxy-1-methylquinolin-2(1H)-one]
amount of compound III in capsules, relative to the amount of tasquinimod ([1]; 0.25 mg capsules of Example 10): 0.07 % w/w
amount of compound III in capsules, relative to the amount of tasquinimod ([1]; 0.25 mg capsules of Example 13): 0.06 % w/w
amount of compound III in capsules, relative to the amount of tasquinimod ([1]; 0.5 mg capsules of Example 7): 0.03 % w/w
Decomposition products (% w/w), relative to the amount of tasquinimod in capsule ([1]; 0.5 mg capsules of Example 28): <0.05 % w/w
amount of compound III in capsules, relative to the amount of tasquinimod ([1]; 1 mg capsules of Example 2): 0.01 % w/w
amount of compound III in capsules, relative to the amount of tasquinimod ([1]; 1 mg capsules of Example 16): 0.02 % w/w
Decomposition products (% w/w), relative to the amount of tasquinimod in capsule ([1]; 1.0 mg capsules of Example 29): <0.05 % w/w
change of the amount of the compound in tasquinimod drug product on storage [2]: increase under any conditions
